Biological target: T1, AlaRS G102R binding to GST-Nrp1 b1 (Homo sapiens, UniProt P49588, G102R)
T1 construct: made in house; host or cells: E. coli BL21 (DE3), pET-21a for AlaRS
T1 sequence (P49588 1-968 G102R): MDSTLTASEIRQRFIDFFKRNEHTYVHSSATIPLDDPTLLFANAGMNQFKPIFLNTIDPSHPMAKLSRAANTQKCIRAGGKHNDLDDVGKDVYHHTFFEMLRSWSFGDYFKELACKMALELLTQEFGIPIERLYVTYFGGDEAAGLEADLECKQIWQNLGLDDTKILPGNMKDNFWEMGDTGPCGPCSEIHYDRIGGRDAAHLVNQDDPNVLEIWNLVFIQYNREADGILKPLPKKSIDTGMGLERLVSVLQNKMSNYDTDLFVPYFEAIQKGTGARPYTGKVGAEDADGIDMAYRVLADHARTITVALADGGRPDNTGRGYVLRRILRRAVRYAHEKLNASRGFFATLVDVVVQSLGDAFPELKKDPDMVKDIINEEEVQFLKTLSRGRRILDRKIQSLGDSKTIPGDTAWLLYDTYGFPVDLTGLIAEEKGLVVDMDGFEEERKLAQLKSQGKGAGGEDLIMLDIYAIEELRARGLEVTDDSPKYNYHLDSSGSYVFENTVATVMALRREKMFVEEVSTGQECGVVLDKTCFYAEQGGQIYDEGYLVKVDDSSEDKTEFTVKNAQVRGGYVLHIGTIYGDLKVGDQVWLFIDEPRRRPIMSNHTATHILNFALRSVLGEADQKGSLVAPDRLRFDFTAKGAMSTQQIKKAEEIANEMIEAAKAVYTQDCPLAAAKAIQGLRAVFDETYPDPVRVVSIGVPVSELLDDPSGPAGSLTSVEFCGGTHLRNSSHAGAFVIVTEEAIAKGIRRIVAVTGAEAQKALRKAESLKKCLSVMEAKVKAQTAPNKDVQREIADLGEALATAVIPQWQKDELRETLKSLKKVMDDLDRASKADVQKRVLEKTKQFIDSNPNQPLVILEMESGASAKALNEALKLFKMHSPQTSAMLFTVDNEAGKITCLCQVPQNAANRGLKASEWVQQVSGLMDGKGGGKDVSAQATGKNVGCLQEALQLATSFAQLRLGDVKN
Test: GST pull down assay
Conditions: 20 µM Tanshinone I, ImageJ, average of three repeats
Method: To further investigate whether Tanshinone I-induced conformational changes in AlaRS CMT mutants affect their interaction with Nrp1, Co-IP experiments were performed in cells treated with Tanshinone I. By comparing Co-IP results obtained before and after treatment, we assessed the influence of the drug on the binding strength and mode between the AlaRS CMT mutants and Nrp1. […] To confirm the direct effect of Tanshinone I on the interaction between AlaRS CMT mutants and Nrp1, pull-down experiments were performed. […] Given that the interaction between AlaRS mutants and Nrp1 is associated with disease progression in CMT, the ability of Tanshinone I to disrupt this binding highlights its potential to intervene in the pathogenic mechanisms of these diseases.
Figure 7 The impact of Tanshinone I on the interaction between AlaRS mutants and Nrp1. (A) Co-IP assays were conducted to assess the binding between HA-AlaRS mutants and Nrp1, both with and without treatment with 20 µM Tanshinone I for 24 h. […] (C) Pull down assay was performed to detect the binding between AlaRS mutants and GST-Nrp1 b1 with or without 20 µM Tanshinone I. (D) Relative quantification statistics of the AlaRS mutants pulled down from the GST pull down experiments after Tanshinone I treatment were performed using ImageJ. (E) The cell viability of 293T and NSC34 cells treated with different concentrations of Tanshinone I was assessed using the CCK-8 assay over a 24 h period. TEXT PRINTED IN THE PICTURE: (B) Tanshinone I: Mean density band (N71Y): 0.60; Mean density band (G102R): 0.53; Mean density band (R326W): 0.50; Mean density band (R329H): 0.50; Mean density band (E337K): 0.62 | (D) Tanshinone I: Mean density band (N71Y): 0.82; Mean density band (G102R): 0.76; Mean density band (R326W): 0.84; Mean density band (R329H): 0.84; Mean density band (E337K): 0.90
To detect the direct interactions between the mutant proteins and Nrp1 in vitro, we performed a Glutathione S-transferase (GST) pull-down assay. AlaRS mutants fused with 6 × His were purified with Ni-NTA beads, followed by chromatography on a HiTrap Q HP column. Nrp1 b1 fragments fused with GST were purified with Glutathione Beads (#SA008100, Smart-Lifesciences, Changzhou, China). For GST pull-down assays, 1000 μg of each GST-fused Nrp1 b1 fragment was mixed with 200 μg of 6 × His-tagged fusion protein in binding buffer (50 mM Tris-HCl pH 7.5, 20 mM NaCl, 5% glycerol, 5 mM DTT with 0.1% BSA) at 4 °C overnight. The mixture was next incubated with 30 μL glutathione beads at 4 °C with constant rotation for 2–4 h. Subsequently, the bead/protein complex was washed three times, and eluted with 30 μL 2 × SDS sample buffer. The samples were then subjected to SDS-PAGE analysis. The experiment was repeated three times.

## Cc1coc2c1C(=O)C(=O)c1c-2ccc2c(C)cccc12 [Tanshinone I]
  Mean density band (G102R), relative quantification of AlaRS mutant pulled down: 0.76

Source: paper PMC11509018, “Evaluation of the Role of Tanshinone I in an In Vitro System of Charcot-Marie-Tooth Disease Type 2N” (International Journal of Molecular Sciences, 2024)
